molecular target: Bcl-2 G101V (Homo sapiens, UniProt P10415, G101V); assay: Bcl-2 G101V inhibition, fluorescence polarization (Flu-BIM tracer) binding assay; settings: FP; 20 nM Bcl2, 5 nM Flu-BIM, 1 h incubation; read-out: Bcl-2 G101V (FP)

Point of comparison: `CC1(C)CCC(CN2CCN(c3ccc(C(=O)NS(=O)(=O)c4ccc(NC[C@H]5COCCO5)c([N+](=O)[O-])c4)c(Oc4cnc5[nH]ccc5c4)c3)CC2)=C(c2cc(CN3CCOCC3)cs2)C1` [Example 22, (S)—N-((4-(((1,4-dioxan-2-yl)methyl)amino)-3-nitrophenyl)sulfonyl)-2-((1H-pyrrolo[2,3-b]pyridin-5-yl)oxy)-4-(4-((4,4-dimethyl-2-(4-(morpholinomethyl)thiophen-2-yl)cyclohex-1-en-1-yl)methyl)piperazin-1-yl)benzamide], IC50 42.8 nM. Against it:
- CC1(C)CCC(CN2CCN(c3ccc(C(=O)NS(=O)(=O)c4ccc(NC[C@H]5CC[C@](C)(O)CC5)c([N+](=O)[O-])c4)c(Oc4cnc5[nH]ccc5c4)c3)CC2)=C(c2cc(-c3ccc(C(C)(C)C#N)cc3)cs2)C1 [Example 56, 2-((1H-pyrrolo[2,3-b]pyridin-5-yl)oxy)-4-(4-((2-(4-(4-(2-cyanopropan-2-yl)phenyl)thiophen-2-yl)-4,4-dimethylcyclohex-1-en-1-yl)methyl)piperazin-1-yl)-N-((4-((((1r,4r)-4-hydroxy-4-methylcyclohexyl)methyl)amino)-3-nitrophenyl)sulfonyl)benzamide] — 1.6-fold lower, 27.6 nM
- CC1(C)CCC(CN2CCN(c3ccc(C(=O)NS(=O)(=O)c4ccc(NC[C@H]5COCCO5)c([N+](=O)[O-])c4)c(Oc4cnc5[nH]ccc5c4)c3)CC2)=C(c2cc(-c3c(F)cc(C(C)(C)O)cc3F)cs2)C1 [Example 64, (S)—N-((4-(((1,4-dioxan-2-yl)methyl)amino)-3-nitrophenyl)sulfonyl)-2-((1H-pyrrolo[2,3-b]pyridin-5-yl)oxy)-4-(4-((2-(4-(2,6-difluoro-4-(2-hydroxypropan-2-yl)phenyl)thiophen-2-yl)-4,4-dimethylcyclohex-1-en-1-yl)methyl)piperazin-1-yl)benzamide] — within 1.5-fold, 37 nM
- CC1(C)CCC(CN2CCN(c3ccc(C(=O)NS(=O)(=O)c4ccc(NC[C@H]5CC[C@](C)(O)CC5)c([N+](=O)[O-])c4)c(Oc4cnc5[nH]ccc5c4)c3)CC2)=C(c2cc(-c3cccc(C(C)(C)O)c3)cs2)C1 [Example 70, 2-((1H-pyrrolo[2,3-b]pyridin-5-yl)oxy)-N-((4-((((1r,4r)-4-hydroxy-4-methylcyclohexyl)methyl)amino)-3-nitrophenyl)sulfonyl)-4-(4-((2-(4-(3-(2-hydroxypropan-2-yl)phenyl)thiophen-2-yl)-4,4-dimethylcyclohex-1-en-1-yl)methyl)piperazin-1-yl)benzamide] — within 1.5-fold, 36.9 nM
- CC1(C)CCC(CN2CCN(c3ccc(C(=O)NS(=O)(=O)c4ccc(NC[C@H]5CC[C@](C)(O)CC5)c([N+](=O)[O-])c4)c(Oc4cnc5[nH]ccc5c4)c3)CC2)=C(c2cc(-c3cc(F)c(F)cc3F)cs2)C1 [Example 53, 2-((1H-pyrrolo[2,3-b]pyridin-5-yl)oxy)-4-(4-((4,4-dimethyl-2-(4-(2,4,5-trifluorophenyl)thiophen-2-yl)cyclohex-1-en-1-yl)methyl)piperazin-1-yl)-N-((4-((((1r,4r)-4-hydroxy-4-methylcyclohexyl)methyl)amino)-3-nitrophenyl)sulfonyl)benzamide] — within 1.5-fold, 36.6 nM
- CC(C)c1csc(C2=C(CN3CCN(c4ccc(C(=O)NS(=O)(=O)c5ccc(NC[C@H]6COCCO6)c([N+](=O)[O-])c5)c(Oc5cnc6[nH]ccc6c5)c4)CC3)CCC(C)(C)C2)c1 [Example 10, (S)—N-((4-(((1,4-dioxan-2-yl)methyl)amino)-3-nitrophenyl)sulfonyl)-2-((1H-pyrrolo[2,3-b]pyridin-5-yl)oxy)-4-(4-((2-(4-isopropylthiophen-2-yl)-4,4-dimethylcyclohex-1-en-1-yl)methyl)piperazin-1-yl)benzamide] — 1.5-fold lower, 27.7 nM
- CC1(C)CCC(CN2CCN(c3ccc(C(=O)NS(=O)(=O)c4ccc(NC[C@H]5CC[C@](C)(O)CC5)c([N+](=O)[O-])c4)c(Oc4cnc5[nH]ccc5c4)c3)CC2)=C(c2cc(-c3ccc(F)cc3)cs2)C1 [Example 37, 2-((1H-pyrrolo[2,3-b]pyridin-5-yl)oxy)-4-(4-((2-(4-(4-fluorophenyl)thiophen-2-yl)-4,4-dimethylcyclohex-1-en-1-yl)methyl)piperazin-1-yl)-N-((4-((((1r,4r)-4-hydroxy-4-methylcyclohexyl)methyl)amino)-3-nitrophenyl)sulfonyl)benzamide] — within 1.5-fold, 34.9 nM
- CC1(C)CCC(CN2CCN(c3ccc(C(=O)NS(=O)(=O)c4ccc(NC[C@H]5CC[C@@](C)(O)CC5)c([N+](=O)[O-])c4)c(Oc4cnc5[nH]ccc5c4)c3)CC2)=C(c2cc(CN3CCOCC3)cs2)C1 [Example 23, 2-((1H-pyrrolo[2,3-b]pyridin-5-yl)oxy)-4-(4-((4,4-dimethyl-2-(4-(morpholinomethyl)thiophen-2-yl)cyclohex-1-en-1-yl)methyl)piperazin-1-yl)-N-((4-((((1s,4s)-4-hydroxy-4-methylcyclohexyl)methyl)amino)-3-nitrophenyl)sulfonyl)benzamide] — 1.5-fold lower, 28.2 nM
- CC1(C)CCC(CN2CCN(c3ccc(C(=O)NS(=O)(=O)c4ccc(NC[C@H]5CC[C@](C)(O)CC5)c([N+](=O)[O-])c4)c(Oc4cnc5[nH]ccc5c4)c3)CC2)=C(c2cc(-c3c(F)cc(C(C)(O)C4CC4)cc3F)cs2)C1 (stereo partly shown) [Example 69, 2-((1H-pyrrolo[2,3-b]pyridin-5-yl)oxy)-4-(4-((2-(4-(4-(1-cyclopropyl-1-hydroxyethyl)-2,6-difluorophenyl)thiophen-2-yl)-4,4-dimethylcyclohex-1-en-1-yl)methyl)piperazin-1-yl)-N-((4-((((1r,4r)-4-hydroxy-4-methylcyclohexyl)methyl)amino)-3-nitrophenyl)sulfonyl)benzamide] — within 1.5-fold, 29 nM
- CC1(C)CCC(CN2CCN(c3ccc(C(=O)NS(=O)(=O)c4ccc(NC[C@H]5CC[C@](C)(O)CC5)c([N+](=O)[O-])c4)c(Oc4cnc5[nH]ccc5c4)c3)CC2)=C(c2cc(-c3c(F)cc(C(C)(C)CO)cc3F)cs2)C1 [Example 74, 2-((1H-pyrrolo[2,3-b]pyridin-5-yl)oxy)-4-(4-((2-(4-(2,6-difluoro-4-(1-hydroxy-2-methylpropan-2-yl)phenyl)thiophen-2-yl)-4,4-dimethylcyclohex-1-en-1-yl)methyl)piperazin-1-yl)-N-((4-((((1r,4r)-4-hydroxy-4-methylcyclohexyl)methyl)amino)-3-nitrophenyl)sulfonyl)benzamide] — within 1.5-fold, 30.2 nM
- CC1(C)CCC(CN2CCN(c3ccc(C(=O)NS(=O)(=O)c4ccc(NC[C@H]5COCCO5)c([N+](=O)[O-])c4)c(Oc4cnc5[nH]ccc5c4)c3)CC2)=C(c2cc(-c3ccc(F)cc3)cs2)C1 [Example 33, (S)—N-((4-(((1,4-dioxan-2-yl)methyl)amino)-3-nitrophenyl)sulfonyl)-2-((1H-pyrrolo[2,3-b]pyridin-5-yl)oxy)-4-(4-((2-(4-(4-fluorophenyl)thiophen-2-yl)-4,4-dimethylcyclohex-1-en-1-yl)methyl)piperazin-1-yl)benzamide] — within 1.5-fold, 33.1 nM
- CC1(C)CCC(CN2CCN(c3ccc(C(=O)NS(=O)(=O)c4ccc(NC[C@H]5CC[C@](C)(O)CC5)c([N+](=O)[O-])c4)c(Oc4cnc5[nH]ccc5c4)c3)CC2)=C(c2cc(-c3ccc(F)cc3F)cs2)C1 [Example 43, 2-((1H-pyrrolo[2,3-b]pyridin-5-yl)oxy)-4-(4-((2-(4-(2,4-difluorophenyl)thiophen-2-yl)-4,4-dimethylcyclohex-1-en-1-yl)methyl)piperazin-1-yl)-N-((4-((((1r,4r)-4-hydroxy-4-methylcyclohexyl)methyl)amino)-3-nitrophenyl)sulfonyl)benzamide] — within 1.5-fold, 33.7 nM
- CN(C)c1ccccc1-c1csc(C2=C(CN3CCN(c4ccc(C(=O)NS(=O)(=O)c5ccc(NC[C@H]6COCCO6)c([N+](=O)[O-])c5)c(Oc5cnc6[nH]ccc6c5)c4)CC3)CCC(C)(C)C2)c1 [Example 58, (S)—N-((4-(((1,4-dioxan-2-yl)methyl)amino)-3-nitrophenyl)sulfonyl)-2-((1H-pyrrolo[2,3-b]pyridin-5-yl)oxy)-4-(4-((2-(4-(2-(dimethylamino)phenyl)thiophen-2-yl)-4,4-dimethylcyclohex-1-en-1-yl)methyl)piperazin-1-yl)benzamide] — within 1.5-fold, 34.1 nM
- CC1(C)CCC(CN2CCN(c3ccc(C(=O)NS(=O)(=O)c4ccc(NC[C@H]5CC[C@](C)(O)CC5)c([N+](=O)[O-])c4)c(Oc4cnc5[nH]ccc5c4)c3)CC2)=C(c2cc(-c3ccc(F)c(F)c3F)cs2)C1 [Example 46, 2-((1H-pyrrolo[2,3-b]pyridin-5-yl)oxy)-4-(4-((4,4-dimethyl-2-(4-(2,3,4-trifluorophenyl)thiophen-2-yl)cyclohex-1-en-1-yl)methyl)piperazin-1-yl)-N-((4-((((1r,4r)-4-hydroxy-4-methylcyclohexyl)methyl)amino)-3-nitrophenyl)sulfonyl)benzamide] — within 1.5-fold, 43.5 nM
- CC1(C)CCC(CN2CCN(c3ccc(C(=O)NS(=O)(=O)c4ccc(NC[C@H]5CC[C@@](C)(O)CC5)c([N+](=O)[O-])c4)c(Oc4cnc5[nH]ccc5c4)c3)CC2)=C(c2cc(-c3ccc(F)cc3)cs2)C1 [Example 36, 2-((1H-pyrrolo[2,3-b]pyridin-5-yl)oxy)-4-(4-((2-(4-(4-fluorophenyl)thiophen-2-yl)-4,4-dimethylcyclohex-1-en-1-yl)methyl)piperazin-1-yl)-N-((4-((((1s,4s)-4-hydroxy-4-methylcyclohexyl)methyl)amino)-3-nitrophenyl)sulfonyl)benzamide] — within 1.5-fold, 46.2 nM
- CC1(C)CCC(CN2CCN(c3ccc(C(=O)NS(=O)(=O)c4ccc(NC[C@H]5CC[C@](C)(O)CC5)c([N+](=O)[O-])c4)c(Oc4cnc5[nH]ccc5c4)c3)CC2)=C(c2cc(-c3ccc(C(F)F)cc3)cs2)C1 [Example 49, 2-((1H-pyrrolo[2,3-b]pyridin-5-yl)oxy)-4-(4-((2-(4-(4-(difluoromethyl)phenyl)thiophen-2-yl)-4,4-dimethylcyclohex-1-en-1-yl)methyl)piperazin-1-yl)-N-((4-((((1r,4r)-4-hydroxy-4-methylcyclohexyl)methyl)amino)-3-nitrophenyl)sulfonyl)benzamide] — within 1.5-fold, 43.6 nM
